Source: PubChem BioAssay (NCI)
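96-well plates; 48 h exposure; 5 concentrations. Endpoints by linear interpolation between flanking doses. Not reached: highest tested concentration assigned. Abbreviation: GI50, concentration required for 50% inhibition of growth. TGI: concentration producing complete growth inhibition.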

How the values were obtained:
Assay in all cases: growth of human tumour cells (NCI), 48 h
BT-549 breast = tested on: BT-549 breast
RPMI-8226 leukemia = tested on: RPMI-8226 leukemia
SNB-75 CNS = tested on: SNB-75 CNS
HT29 colon = tested on: HT29 colon
UACC-257 melanoma = tested on: UACC-257 melanoma
MOLT-4 leukemia = tested on: MOLT-4 leukemia
COLO 205 colon = tested on: COLO 205 colon
NCI/ADR-RES ovarian = tested on: NCI/ADR-RES ovarian
IGROV1 ovarian = tested on: IGROV1 ovarian
SW-620 colon = tested on: SW-620 colon
K-562 leukemia = tested on: K-562 leukemia
SK-MEL-28 melanoma = tested on: SK-MEL-28 melanoma
HOP-92 NSCLC = tested on: HOP-92 NSCLC
PC-3 prostate = tested on: PC-3 prostate
U251 CNS = tested on: U251 CNS
M14 melanoma = tested on: M14 melanoma
SK-MEL-2 melanoma = tested on: SK-MEL-2 melanoma
SF-295 CNS = tested on: SF-295 CNS
EKVX NSCLC = tested on: EKVX NSCLC
HCT-116 colon = tested on: HCT-116 colon
HCC-2998 colon = tested on: HCC-2998 colon
A549 NSCLC = tested on: A549 NSCLC
TK-10 renal = tested on: TK-10 renal
MCF7 breast = tested on: MCF7 breast
MDA-MB-435 = tested on: MDA-MB-435
HS 578T breast = tested on: HS 578T breast
NCI-H522 lung = tested on: NCI-H522 lung
LOX IMVI melanoma = tested on: LOX IMVI melanoma
RXF 393 renal = tested on: RXF 393 renal
NCI-H23 lung = tested on: NCI-H23 lung
A498 renal = tested on: A498 renal
UACC-62 melanoma = tested on: UACC-62 melanoma
KM12 colon = tested on: KM12 colon
CAKI-1 renal = tested on: CAKI-1 renal
OVCAR-3 ovarian = tested on: OVCAR-3 ovarian
HL-60(TB) leukemia = tested on: HL-60(TB) leukemia
SF-268 CNS = tested on: SF-268 CNS
SNB-19 CNS = tested on: SNB-19 CNS
HCT-15 colon = tested on: HCT-15 colon
SF-539 CNS = tested on: SF-539 CNS
CCRF-CEM leukemia = tested on: CCRF-CEM leukemia
MALME-3M melanoma = tested on: MALME-3M melanoma
786-0 renal = tested on: 786-0 renal
OVCAR-5 ovarian = tested on: OVCAR-5 ovarian
DU-145 prostate = tested on: DU-145 prostate
OVCAR-4 ovarian = tested on: OVCAR-4 ovarian
SN12C renal = tested on: SN12C renal
ACHN renal = tested on: ACHN renal
NCI-H460 lung = tested on: NCI-H460 lung
NCI-H226 lung = tested on: NCI-H226 lung
SK-OV-3 ovarian = tested on: SK-OV-3 ovarian
HOP-62 NSCLC = tested on: HOP-62 NSCLC
T-47D breast = tested on: T-47D breast
OVCAR-8 ovarian = tested on: OVCAR-8 ovarian
MDA-MB-231 breast = tested on: MDA-MB-231 breast
UO-31 renal = tested on: UO-31 renal
SK-MEL-5 melanoma = tested on: SK-MEL-5 melanoma
SR leukemia = tested on: SR leukemia

CCOC(=O)/C(C#N)=C1\SS/C(=C(/C#N)C(=O)OCC)S1
GI50 (BT-549 breast): 17.8 µM | TGI (BT-549 breast): 32.7 µM | GI50 (RPMI-8226 leukemia): 19.9 µM | TGI (RPMI-8226 leukemia): 73.5 µM | GI50 (SNB-75 CNS): 22.4 µM | TGI (SNB-75 CNS): 57.5 µM | GI50 (HT29 colon): 3.92 µM | TGI (HT29 colon): 22.3 µM | GI50 (UACC-257 melanoma): 18.3 µM | TGI (UACC-257 melanoma): 34.8 µM | GI50 (MOLT-4 leukemia): 10.8 µM | TGI (MOLT-4 leukemia): 57.8 µM | GI50 (COLO 205 colon): 0.861 µM | TGI (COLO 205 colon): 2.67 µM | GI50 (NCI/ADR-RES ovarian): 25.8 µM | TGI (NCI/ADR-RES ovarian): 65.3 µM | GI50 (IGROV1 ovarian): 14.2 µM | TGI (IGROV1 ovarian): 33 µM | GI50 (SW-620 colon): 5.4 µM | TGI (SW-620 colon): 32.7 µM | GI50 (K-562 leukemia): 7.99 µM | TGI (K-562 leukemia): > 100 µM | GI50 (SK-MEL-28 melanoma): 18.9 µM | TGI (SK-MEL-28 melanoma): 34.1 µM | GI50 (HOP-92 NSCLC): 14.3 µM | TGI (HOP-92 NSCLC): 28.3 µM | GI50 (PC-3 prostate): 19.7 µM | TGI (PC-3 prostate): 40.7 µM | GI50 (U251 CNS): 19 µM | TGI (U251 CNS): 38 µM | GI50 (M14 melanoma): 17 µM | TGI (M14 melanoma): 35.9 µM | GI50 (SK-MEL-2 melanoma): 18.7 µM | TGI (SK-MEL-2 melanoma): 40.2 µM | GI50 (SF-295 CNS): > 100 µM | TGI (SF-295 CNS): > 100 µM | GI50 (EKVX NSCLC): 19.6 µM | TGI (EKVX NSCLC): 50.4 µM | GI50 (HCT-116 colon): 14.2 µM | TGI (HCT-116 colon): 33.5 µM | GI50 (HCC-2998 colon): 20.1 µM | TGI (HCC-2998 colon): 39.9 µM | GI50 (A549 NSCLC): 40 µM | TGI (A549 NSCLC): > 100 µM | GI50 (TK-10 renal): 6.81 µM | TGI (TK-10 renal): 20.3 µM | GI50 (MCF7 breast): 18.3 µM | TGI (MCF7 breast): 41.1 µM | GI50 (MDA-MB-435): 17.1 µM | TGI (MDA-MB-435): 33.1 µM | GI50 (HS 578T breast): 47.9 µM | TGI (HS 578T breast): > 100 µM | GI50 (NCI-H522 lung): 2.47 µM | TGI (NCI-H522 lung): 7.59 µM | GI50 (LOX IMVI melanoma): 13.9 µM | TGI (LOX IMVI melanoma): 57.4 µM | GI50 (RXF 393 renal): 13.3 µM | TGI (RXF 393 renal): 26.4 µM | GI50 (NCI-H23 lung): 23.5 µM | TGI (NCI-H23 lung): 61.2 µM | GI50 (A498 renal): 63.9 µM | TGI (A498 renal): > 100 µM | GI50 (UACC-62 melanoma): 15.8 µM | TGI (UACC-62 melanoma): 32.6 µM | GI50 (KM12 colon): 20.1 µM | TGI (KM12 colon): 41.3 µM | GI50 (CAKI-1 renal): 4.38 µM | TGI (CAKI-1 renal): 18.6 µM | GI50 (OVCAR-3 ovarian): 14.5 µM | TGI (OVCAR-3 ovarian): 28.8 µM | GI50 (HL-60(TB) leukemia): 22.6 µM | TGI (HL-60(TB) leukemia): 63 µM | GI50 (SF-268 CNS): 20.5 µM | TGI (SF-268 CNS): 41 µM | GI50 (SNB-19 CNS): 35.8 µM | TGI (SNB-19 CNS): > 100 µM | GI50 (HCT-15 colon): 18 µM | TGI (HCT-15 colon): 61.4 µM | GI50 (SF-539 CNS): 22.2 µM | TGI (SF-539 CNS): 42.8 µM | GI50 (CCRF-CEM leukemia): 4.62 µM | TGI (CCRF-CEM leukemia): 67.7 µM | GI50 (MALME-3M melanoma): 11.6 µM | TGI (MALME-3M melanoma): 27.4 µM | GI50 (786-0 renal): 19.2 µM | TGI (786-0 renal): 34.1 µM | GI50 (OVCAR-5 ovarian): 22.4 µM | TGI (OVCAR-5 ovarian): 42.8 µM | GI50 (DU-145 prostate): 18.2 µM | TGI (DU-145 prostate): 33.6 µM | GI50 (OVCAR-4 ovarian): 15.1 µM | TGI (OVCAR-4 ovarian): 29.8 µM | GI50 (SN12C renal): 19.9 µM | TGI (SN12C renal): 43.3 µM | GI50 (ACHN renal): 14.8 µM | TGI (ACHN renal): 29.5 µM | GI50 (NCI-H460 lung): 32 µM | TGI (NCI-H460 lung): > 100 µM | GI50 (NCI-H226 lung): 19.6 µM | TGI (NCI-H226 lung): 38.6 µM | GI50 (SK-OV-3 ovarian): > 100 µM | TGI (SK-OV-3 ovarian): > 100 µM | GI50 (HOP-62 NSCLC): 26.1 µM | TGI (HOP-62 NSCLC): 86.7 µM | GI50 (T-47D breast): 17.9 µM | TGI (T-47D breast): 48.2 µM | GI50 (OVCAR-8 ovarian): 20.3 µM | TGI (OVCAR-8 ovarian): 41.1 µM | GI50 (MDA-MB-231 breast): 14.9 µM | TGI (MDA-MB-231 breast): 29.6 µM | GI50 (UO-31 renal): 13.2 µM | TGI (UO-31 renal): 26.1 µM | GI50 (SK-MEL-5 melanoma): 32 µM | TGI (SK-MEL-5 melanoma): > 100 µM | GI50 (SR leukemia): 3.59 µM | TGI (SR leukemia): > 100 µM
